Among the data in ChEMBL document CHEMBL1158728, “Makaluvic acids from the South African latrunculid sponge Strongylodesma aliwaliensis” (J Nat Prod, 2005) are IC50 values, retold here.

Where only a bound is given, the exact number is not on record here.

The assay is described as follows: Cytotoxicity against human WHCO1 cells after 48 hrs by MTT assay. The assay is classed as functional, cell-based. The following applies: WHCO1, 48 h. (In general: Tetrazolium assays rely on reduction of a dye to a coloured formazan, in cell work by metabolically active cells.)

With `O=C1C=C2NCCc3cn([C@@H]4O[C@H](CO)[C@@H](O)[C@H]4O)c(c32)C1=O`, the IC50 – broadly, the concentration at which inhibition is half-maximal – turned out to be 38 µM.
As for `O=C1C(N/C=C/c2ccc(O)cc2)=CC2=NCCc3c[nH]c1c32` [MAKALUVAMINE M], the IC50 was determined as 0.7 µM.
The same measure for `NC1=CC2=NCCc3cn([C@@H]4O[C@H](CO)[C@@H](O)[C@H]4O)c(c32)C1=O`: 1.6 µM; for `O=C1C=C2NCCc3c[nH]c(c32)C1=O` [DAMIRONE C]: 56 µM.
As to `O=C(O)c1[nH]cc2c1C(=O)NCC2` [MAKALUVIC ACID C], the IC50 is greater than 150 µM.
The result for `O=C1NCCc2cn([C@@H]3O[C@H](CO)[C@@H](O)[C@H]3O)c(C(=O)O)c21` reads 61 µM.
